Laboratory results reported in US20100297229A1, “TAPENTADOL COMPOSITIONS” (Nectid Inc., priority 2007, published 2010).
Structures can show the parent of a compound that is named as a salt.

Experiments:
[1] = tested on: Chronic non-cancer pain (CNCP); test: Study III: clinical trial of tapentadol and tramadol combination, VAS pain score; format: in vivo, human; details: mean ± SD, VAS 0-100 mm, N = 10
Procedure: The following general methods were used in all of the studies;
Randomization: Randomization was performed with computer-generated random numbers in blocks of 10. Randomization codes of the monotherapy or combination therapy treatments were placed in sequentially numbered, opaque, sealed envelopes in the biopsy center. When a patient was recruited and consented, the next numbered envelope was opened by the operator, who had no knowledge of the randomization code before the treatment
Scale and Measurement: Pain was assessed using a visual analogue scale (VAS) graded from 0-100 mm. Pain scoring was performed every visit Week 1, Week 2, Week 3, Week 4, Week 5 and Week 6. The patients were taught with a standard method by the physician how to use a VAS scoring from 0 to 100 mm to grade the intensity of pain experienced during the treatment. On that scale, the left endpoint, 0, was defined as no pain and the right endpoint 100, as the worst pain the patient could imagine. There were no further marks on the line. The intensity of pain was indicated by the distance in millimeters from the left end. Patients were asked to grade the pain intensity after the administration of drugs and the pain was assessed by the patient in their weekly pain score diary. The doctors who prescribed the medicines obtained all the VAS forms for that specific patient.
Statistical Analysis: Data are expressed as means±SD. Differences in VAS were analyzed with use of the unpaired Student t test and differences in pain score reductions between the two groups were analyzed with use of the Mann-Whitney U test for the median difference. Similar statistical tests were used for between group comparisons of other outcome variables as appropriate. A two tailed P value of less than. […] SAS software was used for the statistical analysis.
The Fixed dose combination of slow release tapentadol hydrochloride and tramadol hydrochloride was tested in a human clinical trial. In this study III, 40 patients were used in a clinical trial were suffering from Chronic non-cancer pain (CNCP), defined as pain for longer than 6 months, including neuropathic pain, osteoarthritis, rheumatoid arthritis, fibromyalgia, and back and musculoskeletal pain were included in the clinical trial. No effort was made to segregate the patients based on the type of pain nor did we evaluate the extent of pain relief on the basis of pain type. Those patients with migraines, dental pain, abdominal pains (from chronic pancreatitis, kidney stones, etc.) and ischemic pain from vascular disease were excluded because they are usually not classified as CNCP. Patients with history of addiction (alcohol or drugs) were excluded from the trials.

[2] = tested on: pain intensity associated with knee osteoarthritis; test: Study I: 6-week clinical trial of tapentadol and NSAID combination, Arthritis Pain Intensity VAS; format: in vivo, human; details: primary endpoint; average of Weeks 1-6; knee osteoarthritis patients; FIG. 2

Row | SMILES | VAS Pain Score ([1]; time 0 hours) | VAS Pain Score ([1]; time 3 hours) | VAS Pain Score ([1]; time 6 hours) | VAS Pain Score ([1]; time 9 hours) | VAS Pain Score ([1]; time 12 hours) | VAS Pain Score ([1]; time 15 hours) | VAS Pain Score ([1]; time 18 hours) | VAS Pain Score ([1]; time 21 hours) | VAS Pain Score ([1]; time 24 hours) | LS Mean change from baseline over 6 weeks in the arthritis pain intensity VAS [2]
1 | COc1cccc([C@]2(O)CCCC[C@H]2CN(C)C)c1 (racemic) [Tramadol, (±) cis-2-[(dimethylamino)methyl]-1-(3-methoxyphenyl)cyclo-hexanol hydrochloride] | 32.4 ± 21.2 | 23.1 ± 20.1 | 18.8 ± 20.6 | 14.9 ± 17.2 | 13.1 ± 21.2 | 13.9 ± 19.2 | 15.4 ± 21.3 | 14.5 ± 19.2 | 13.9 ± 19.2 | –
2 | CC[C@@H](c1cccc(O)c1)[C@@H](C)CN(C)C [Tapentadol, 3-(3-Dimethylamino-1-ethyl-2-methyl-propyl)-phenol] | 33.7 ± 18.2 | 24.8 ± 19.1 | 21.1 ± 22.9 | 14.2 ± 23.1 | 11.2 ± 20.9 | 11.0 ± 16.2 | 9.5 ± 17.8 | 10.4 ± 16.2 | 11.6 ± 16.2 | 38%
3 | COc1ccc2cc([C@H](C)C(=O)O)ccc2c1 [Naproxen, (+)-(S)-2-(6-methoxy-naphthalen-2-yl) propanoic acid] | – | – | – | – | – | – | – | – | – | 28%
